From ChEMBL document CHEMBL1145546, “Interactive effects of polymethoxy flavones from Citrus on cell growth inhibition in human neuroblastoma SH-SY5Y cells” (Bioorg Med Chem, 2008)
Active and inactive are the calls of the source. No cut-off for these calls is given here.

Legend:
SH-SY5Y [1] = assay: Growth inhibition of human SHSY5Y cells assessed as viable cells after 48 hrs by Trypan blue dye exclusion test; format: functional, cell-based
SH-SY5Y [2] = assay: Elevation of phosphorylated JNk level in hydrogen peroxide-treated human SHSY5Y cells at 30 uM after 3 hrs by Western blot analysis; format: functional, cell-based
SH-SY5Y [3] = assay: Reduction of hydrogen peroxide-induced apoptotic cell death in human SHSY5Y cells assessed as DNA ladder formation after 12 hrs; format: functional, cell-based
SH-SY5Y [4] = assay: Elevation of phosphorylated p38 level in hydrogen peroxide-treated human SHSY5Y cells at 30 uM after 3 hrs by Western blot analysis; format: functional, cell-based
SH-SY5Y [5] = assay: Reduction of hydrogen peroxide-induced apoptotic cell death in human SHSY5Y cells after 12 hrs; format: functional; design: scale not given: the % may be the effect or the level left
SH-SY5Y [6] = assay: Elevation of phosphorylated ERK level in hydrogen peroxide-treated human SHSY5Y cells at 30 uM after 3 hrs by Western blot analysis; format: functional, cell-based

IC50 (SH-SY5Y [1])	SMILES	Activity (SH-SY5Y [2])	Activity (SH-SY5Y [3])	Activity (SH-SY5Y [4])	Activity (SH-SY5Y [5])	Activity (SH-SY5Y [6])
32.5 µM	COc1ccc(-c2cc(=O)c3c(O)c(OC)c(OC)c(OC)c3o2)cc1OC [5-DEMETHYLNOBILETIN]	–	–	–	–	–
41.2 µM	COc1ccc(-c2cc(=O)c3c(OC)c(OC)c(OC)c(OC)c3o2)cc1 [TANGERETIN]	–	–	–	–	–
–	COc1ccc(-c2cc(=O)c3c(OC)c(OC)c(OC)c(OC)c3o2)cc1OC [NOBILETIN]	Active	Active	Active	30%	Active
